The test system of one data set is rats after ISO damage. The note with it: rat, in vivo.
The subject of the next data set is c-kit^pos eCSCs. The data set can be described thus: cardiomyocyte differentiation of c-kit^pos eCSCs in differentiation medium (cTnI^pos cells, qRT-PCR). The data set is classed as cell-based, rat. The note with it: for number of myocyte differentiating (cTnI^pos) cells / transcription of myogenic lineage markers: differentiation medium (LIF withdrawal); for transcription of myogenic lineage markers: qRT-PCR; for differentiation of eCSCs into the cardiomyocyte lineage (myocyte specification): differentiation medium. Here is the method: FIGS. 4(A-E). […] Nuclei were identified by DAPI in blue. Bar=50 μm. […] Data are Mean±SD of n=6/condition. […]
RNA was extracted using Qiagen RNeasy columns and was reverse transcribed using first strand cDNA synthesis with random or oligo-dT primers (Applied Biosystems). Residual amounts of DNA were removed by on-column DNase treatment using the RNase-Free DNase Set (Qiagen) during the RNeasy procedure. Quantitative RT-PCR was performed using SYBR Green (BioRad) on a MyIQ thermocycler (BioRad). The PCR-reaction included 2 μl of template cDNA, and 300 nM forward and reverse primers. PCR efficiency was evaluated by using a standard curve of five serial dilution points. Data were analysed using BioRad IQ software and mRNA was normalized to the housekeeping gene, GAPDH. All reactions were carried out in triplicate.

Data set [1] relates to c-kit^pos CD45^neg eCSCs. Kind of data set: BrdU incorporation proliferation assay of c-kit^pos eCSCs with cardiopoietic growth factors and Wnt or TGF-β modulators. The class given is cell-based, rat. To be noted: in vitro. Here is the method: (§1) c-kit^posCD45^neg eCSCs express functional receptors for these cardiopoetic factors (cGFs) (FIG. 4). In particular, both TGF-β1 and Wnt receptors are activated and signal to their known downstream effectors in eCSCs isolated from ISO injured hearts (FIG. 4). We thus directly tested in vitro the growth response of freshly isolated c-kit^pos CD45^neg eCSCs grown in limited serum (1% ESQ-FBS) to individual cGFs. Dose-response curves were performed to determine the optimal concentration for each cGF (FIG. 13A-H). […] These effects were confirmed by qRT-PCR of cardiomyocyte-specific mRNAs (FIG. 5).
(§2) Wnt/β-catenin and TGF-β/SMADs signaling play critical roles in the regulation of embryonic as well as different tissue-specific stem cell fate (21-23). In particular, these two signaling pathways have distinct functions in mammalian cardiogenesis (24-27). Thus, to extend our findings we have tested through gain and loss of function experiments the effects of Wnt/β-catenin and TGF-β/SMADs signaling pathways on c-kit^pos eCSC fate in vitro. […] To disrupt Wnt/ρ-catenin, c-kit^pos eCSCs were either treated with Dickkopf-1 (Dkk-1), an inhibitor of canonical Wnts or transfected with a specific short hairpin RNA for β-catenin (β-cat^shRNA). […] The positive and negative modulators of Wnt/β-catenin physiologically acted on their known molecular targets by respectively stabilizing or degrading β-catenin and its LEF/TCF-dependent transcriptional activity (FIG. 6). […] On the other hand, Dkk-1 increased c-kit^pos CSC myocyte specification (FIG. 5), even though its effect was not sufficient to produce a fully differentiated phenotype as indicated by the lack of cells which expressed abundant and organised sarcomeric structures (FIG. 5).

In data set [2] the test system is CSCs^GFP/TK and adult rat ventricular myocytes (ARVM). Kind of data set: GCV in vitro on CSCs^GFP/TK growth and on co-cultured adult rat ventricular myocytes. The class given is cell-based. How it is done:
c-kit^pos CSCs were grown in CSC growth medium consisting of Dulbecco's MEM/Ham's F12 (DMEM/F12; […] Millipore), bFGF (10 ng/ml; Peprotech), EGF (20 ng/ml; Peprotech), insulin-transferrin-selenite (ITS; […] Ganciclovir (GCV, 10^−5M) was added and cells were cultured for 3 and 7 days. Mouse c-kit^pos CSCs or c-kit^pos CSC-derived cardiospheres were cultured on glass chamber slides (BD Falcon), fixed with 4% PFA for 20 min, and then stained. […] For cardiomyocyte/CSC^GFP/TK co-culture assays, 3× wells/condition were fixed and stained to assess the number of apoptotic (TdT and caspase-3) cardiomyocytes (Kawaguchi et al., 2010). Cardiomyocytes were identified by co-staining for cTnI. The percentage of TdT-positive and caspase-3 positive cardiomyocytes was determined by counting 20 random fields at ×40 magnification for each well. Numbers were expressed as a percentage of TdT- or caspase-3 positive cardiomyocytes relative to the total number of cardiomyocytes counted. FITC or Texas Red-conjugated 2° Abs were used. Nuclei were stained with DAPI. Fluorescence was visualized and images acquired with confocal microscopy (Zeiss LSM 510 or 710).

Data set [3] concerns rats with ISO+5-FU cardiomyopathy.
The test system of another data set is hCSCs. The data set can be described thus: stimulation of hCSCs with inflammatory cytokines, immunogenicity molecules. The class given is cell-based, human. From the text:
The human c-kit CSCs (hCSCs) from all the donors tested so far (n=8) expressed normal levels of the HLA class I and no detectable levels of HLA class II and the co-stimulatory molecules CD40, CD80 and CD 86 (see primary data example below)> they also fail to express CD 275 but express high levels of PD-L1 (CD274).

The subject of data set [4] is c-kit^pos CD45^neg eCSCs. Kind of data set: clonogenic assay of c-kit^pos eCSCs. The data set is classed as cell-based, rat. To be noted: in vitro. How it is done:
as §1, §2

Entries after “also recorded” stand apart in the source; their conditions may differ.

Consider `O=c1[nH]cc(F)c(=O)[nH]1` [5-FU, 5-fluorouracil], for which the “toxic effects of the 5-FU regime” value with rats after ISO damage was “did not cause any cellular or functional cardiac or extra-cardiac toxic effects”.

As for `O=C1Nc2cc(Br)ccc2/C1=C1/Nc2ccccc2/C1=N\O` [BIO, 6-bromoindirubin-3′-oxime], in the data set on c-kit^pos eCSCs, the “number of myocyte differentiating (cTnI^pos) cells” value (“number of myocyte differentiating” below) is “significantly reduced” and the “transcription of myogenic lineage markers” value (shortened to “transcription”) is given as “significantly reduced”. The “c-kit^pos eCSC proliferation (growth, expansion)” value (“c-kit^pos eCSC proliferation” for short) with c-kit^pos CD45^neg eCSCs [1] was “stimulate”.

Turning to `Nc1nc(O)c2ncn(COC(CO)CO)c2n1` [GCV, Ganciclovir], the “adult rat ventricular myocyte (ARVM) apoptosis” value in data set [2] (GCV 10^−5 M, alone or co-cultured with CSC^GFP/TK) is recorded as “does not cause any relevant effect”. Further, the “growth of Lenti-GFP/TK-transfected CSCs (CSCs^GFP/TK)” value in data set [2] (GCV 10^−5 M, in vitro) is recorded as “growth arrest”. For the same molecule, the “survival of adult rat ventricular CMs cultured with CSCs^GFP/TK” value in data set [2] (GCV at a concentration sufficient to kill the CSCs^GFP/TK) is “does not affect survival”. In data set [3] (ISO+5-FU+CSCs^GFP/TK group), the “effect of GCV treatment on recovered cellular and functional parameters” value is “dramatic reversal of all the recovered cellular and functional parameters”. The “adverse effects of GCV treatment” value in data set [3] (rat, in vivo) is on record as “did not cause any histological or functional adverse effects”.

As for FGF-2: cardiopoietic growth factor, the “c-kit^pos eCSC proliferation” value with c-kit^pos CD45^neg eCSCs [1] is given as “significantly increased”.

As for HGF: cardiopoietic growth factor, the “c-kit^pos eCSC proliferation” value in the data set on c-kit^pos CD45^neg eCSCs [1] was “significantly increased”.

IFNγ: inflammatory cytokine: in the data set on hCSCs, the “expression of HLA class I and class II on hCSCs” value is on record as “significantly enhanced”; the “expression of the co-stimulatory molecules CD40, CD80 and CD 86 on hCSCs” value was “does not induce”.

IGF-1: cardiopoietic growth factor: the “c-kit^pos eCSC proliferation” value in the data set with c-kit^pos CD45^neg eCSCs [1] is given as “significantly increased”.

For the molecule TGF-β1: cardiopoietic growth factor, in the data set on c-kit^pos eCSCs, the “differentiation of eCSCs into the cardiomyocyte lineage (myocyte specification)” value (shortened to “differentiation”) is reported as “promoted differentiation”, the “number of myocyte differentiating” value is recorded as “significantly induced” and the “transcription” value was “significantly induced”. Further, in the data set with c-kit^pos CD45^neg eCSCs [4], the “c-kit^pos eCSC clonogenicity” value is recorded as “did not affect; also recorded: Neither BMP-2, BMP-4, TGF-β1 supplementation nor Smad2 knock-down affected”. Also, the “c-kit^pos eCSC proliferation” value with c-kit^pos CD45^neg eCSCs [1] is reported as “did not affect; also recorded: Neither BMP-2, BMP-4, TGF-β1 supplementation nor Smad2 knock-down affected”.

B1: BMP-10: cardiopoietic growth factor (protein, UniProt O95393 317-424, looked up)
Bone morphogenetic protein 10: NAKGNYCKRTPLYIDFKEIGWDSWIIAPPGYEAYECRGVCNYPLAEHLTPTKHAIIQALVHLKNSQKASKACCVPTKLEPISILYLDKGVVTYKFKYEGMAVSECGCR
On to B1, for which, in the data set with c-kit^pos eCSCs, the “number of myocyte differentiating” value is listed as “significantly induced” and the “transcription” value was “significantly induced”.

B2: BMP-4: cardiopoietic growth factor (protein, UniProt P12644 293-408, looked up)
Bone morphogenetic protein 4: SPKHHSQRARKKNKNCRRHSLYVDFSDVGWNDWIVAPPGYQAFYCHGDCPFPLADHLNSTNHAIVQTLVNSVNSSIPKACCVPTELSAISMLYLDEYDKVVLKNYQEMVVEGCGCR
Consider B2, for which, in the data set on c-kit^pos eCSCs, the “differentiation” value is given as “promoted differentiation”, the “number of myocyte differentiating” value was “significantly induced” and the “transcription” value is on record as “significantly induced”. Also, the “c-kit^pos eCSC clonogenicity” value with c-kit^pos CD45^neg eCSCs [4] was “did not affect; also recorded: Neither BMP-2, BMP-4, TGF-β1 supplementation nor Smad2 knock-down affected”. For the same molecule, in the data set on c-kit^pos CD45^neg eCSCs [1], the “c-kit^pos eCSC proliferation” value was “did not affect; also recorded: Neither BMP-2, BMP-4, TGF-β1 supplementation nor Smad2 knock-down affected”.

B3: Dkk-1: Dickkopf-1, an inhibitor of canonical Wnts (protein, UniProt O94907 32-266, looked up)
Dickkopf-related protein 1: TLNSVLNSNAIKNLPPPLGGAAGHPGSAVSAAPGILYPGGNKYQTIDNYQPYPCAEDEECGTDEYCASPTRGGDAGVQICLACRKRRKRCMRHAMCCPGNYCKNGICVSSDQNHFRGEIEETITESFGNDHSTLDGYSRRTTLSSKMYHTKGQEGSVCLRSSDCASGLCCARHFWSKICKPVLKEGQVCTKHRRKGSHGLEIFQRCYCGEGLSCRIQKDHHQASNSSRLHTCQRH
In the case of B3, the “differentiation” value in the data set with c-kit^pos eCSCs was “increased”. Also, the “c-kit^pos eCSC clonogenicity” value in the data set with c-kit^pos CD45^neg eCSCs [4] is reported as “significant decrease”. Further, the “c-kit^pos eCSC proliferation” value with c-kit^pos CD45^neg eCSCs [1] is reported as “significant decrease”.

B4: Wnt5a: non-canonical Wnt, cardiopoietic growth factor (protein, UniProt P41221 62-380, looked up)
Protein Wnt-5a: IIGAQPLCSQLAGLSQGQKKLCHLYQDHMQYIGEGAKTGIKECQYQFRHRRWNCSTVDNTSVFGRVMQIGSRETAFTYAVSAAGVVNAMSRACREGELSTCGCSRAARPKDLPRDWLWGGCGDNIDYGYRFAKEFVDARERERIHAKGSYESARILMNLHNNEAGRRTVYNLADVACKCHGVSGSCSLKTCWLQLADFRKVGDALKEKYDSAAAMRLNSRGKLVQVNSRFNSPTTQDLVYIDPSPDYCVRNESTGSLGTQGRLCNKTSEGMDGCELMCCGRGYDQFKTVQTERCHCKFHWCCYVKCKKCTEIVDQFVCK
Regarding B4, the “differentiation” value with c-kit^pos eCSCs is “promoted differentiation”. The “c-kit^pos eCSC clonogenicity” value with c-kit^pos CD45^neg eCSCs [4] was “did not affect”. Besides, the “c-kit^pos eCSC proliferation” value in the data set with c-kit^pos CD45^neg eCSCs [1] is “did not affect”.

B5: Wnt3a: soluble Wnt-3a, canonical Wnt growth factor (protein, UniProt P56704 19-352, looked up)
Protein Wnt-3a: SYPIWWSLAVGPQYSSLGSQPILCASIPGLVPKQLRFCRNYVEIMPSVAEGIKIGIQECQHQFRGRRWNCTTVHDSLAIFGPVLDKATRESAFVHAIASAGVAFAVTRSCAEGTAAICGCSSRHQGSPGKGWKWGGCSEDIEFGGMVSREFADARENRPDARSAMNRHNNEAGRQAIASHMHLKCKCHGLSGSCEVKTCWWSQPDFRAIGDFLKDKYDSASEMVVEKHRESRGWVETLRPRYTYFKVPTERDLVYYEASPNFCEPNPETGSFGTRDRTCNVSSHGIDGCDLLCCGRGHNARAERRREKCRCVFHWCCYVSCQECTRVYDVHTCK
As to B5, in the data set on c-kit^pos eCSCs, the “number of myocyte differentiating” value is on record as “significantly reduced”. Moreover, the “transcription” value with c-kit^pos eCSCs is reported as “significantly reduced”. In addition, the “c-kit^pos eCSC clonogenicity” value is listed as “most effective” in the data set on c-kit^pos CD45^neg eCSCs [4] and “stimulate” with c-kit^pos CD45^neg eCSCs [4] (listed as Wnt-3a). Also, the “c-kit^pos eCSC proliferation” value in the data set with c-kit^pos CD45^neg eCSCs [1] was “significantly increased”; with c-kit^pos CD45^neg eCSCs [1] (listed as Wnt-3a), “stimulate”.

(Values after patent US10526581B2, “Modulation of cardiac stem-progenitor cell differentiation, assays and uses thereof” (priority 2013, dated 2020).)
